Source: the supplement of paper PMC10307832

Columns and labels:
Experiment in all cases: relative viability (nuclei count vs DMSO), 5 days (fraction); higher = more cells survive
Salubrinal + Navitoclax = compound: O=C(/C=C/c1ccccc1)NC(NC(=S)Nc1cccc2cccnc12)C(Cl)(Cl)Cl [Salubrinal] + CC1(C)CCC(c2ccc(Cl)cc2)=C(CN2CCN(c3ccc(C(=O)NS(=O)(=O)c4ccc(N[C@H](CCN5CCOCC5)CSc5ccccc5)c(S(=O)(=O)C(F)(F)F)c4)cc3)CC2)C1 [Navitoclax] (partner 0.5 µM)
How it was run: (§1)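 Values are medians from duplicate plates. Each reflects relative viability, defined as the nuclei count of treated wells over that of vehicle wells. Lung cancer cell lines in 1536-well plates were pin-tool dosed one day after seeding with one drug alone or with a fixed anchor-drug dose plus five library-drug doses (not always all listed) in √10 steps, then fixed, stained and imaged at 4× after 5 days.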

Salubrinal + Trametinib = compound: O=C(/C=C/c1ccccc1)NC(NC(=S)Nc1cccc2cccnc12)C(Cl)(Cl)Cl [Salubrinal] + CC(=O)Nc1cccc(-n2c(=O)n(C3CC3)c(=O)c3c(Nc4ccc(I)cc4F)n(C)c(=O)c(C)c32)c1 [Trametinib] (partner 0.02 µM)
How it was run: as §1

[1] = compound: Cc1ccc2nc(NCCN)c3ncc(C)n3c2c1 + COc1cc2c(Oc3ccc(NC(=O)C4(C(=O)Nc5ccc(F)cc5)CC4)cc3F)ccnc2cc1OCCCN1CCOCC1 [Foretinib] (partner 0.25 µM)
How it was run: as §1

[2] = compound: Cc1ccc2nc(NCCN)c3ncc(C)n3c2c1 + O=C(CCCCCCC(=O)Nc1ccccc1)NO [Vorinostat] (partner 1 µM)
How it was run: as §1

Cell Line | relative viability (Salubrinal + Navitoclax; first compound 0.08 µM) | relative viability (Salubrinal + Navitoclax; first compound 0.253 µM) | relative viability (Salubrinal + Navitoclax; first compound 0.8 µM) | relative viability (Salubrinal + Navitoclax; first compound 2.53 µM) | relative viability (Salubrinal + Navitoclax; first compound 8 µM) | relative viability (Salubrinal + Trametinib; first compound 0.08 µM) | relative viability (Salubrinal + Trametinib; first compound 0.253 µM) | relative viability (Salubrinal + Trametinib; first compound 0.8 µM) | relative viability (Salubrinal + Trametinib; first compound 2.53 µM) | relative viability (Salubrinal + Trametinib; first compound 8 µM) | relative viability ([1]; first compound 0.04 µM) | relative viability ([1]; first compound 0.1265 µM) | relative viability ([1]; first compound 0.4 µM) | relative viability ([1]; first compound 1.265 µM) | relative viability ([1]; first compound 4 µM) | relative viability ([2]; first compound 0.04 µM) | relative viability ([2]; first compound 0.1265 µM) | relative viability ([2]; first compound 0.4 µM) | relative viability ([2]; first compound 1.265 µM) | relative viability ([2]; first compound 4 µM)
LU99A | 0.942 | 0.864 | 0.798 | 0.858 | 0.828 | 0.589 | 0.515 | 0.614 | 0.548 | 0.56 | 0.884 | 0.796 | 0.805 | 0.921 | 0.83 | 0.532 | 0.512 | 0.423 | 0.494 | 0.476
LXF-289 | 0.99 | 0.898 | 1.04 | 0.943 | 0.868 | 0.747 | 0.59 | 0.7 | 0.702 | 0.681 | 0.95 | 1 | 0.955 | 0.992 | 0.958 | 0.765 | 0.639 | 0.795 | 0.629 | 0.806
NCI-H23 | 1.01 | 0.722 | 0.91 | 0.759 | 1.04 | 0.437 | 0.423 | 0.479 | 0.334 | 0.375 | 1.09 | 1.04 | 0.963 | 0.88 | 1.03 | 0.759 | 0.654 | 0.501 | 0.493 | 0.578
NCI-H322M | 1.38 | 1.19 | 1.34 | 1.23 | 1.16 | 0.542 | 0.517 | 0.487 | 0.565 | 0.521 | 0.995 | 0.874 | 0.969 | 1.04 | 1.15 | 0.991 | 0.86 | 0.957 | 1 | 1.09
NCI-H441 | 0.437 | 0.711 | 0.642 | 0.678 | 0.913 | 0.48 | 0.415 | 0.48 | 0.507 | 0.462 | 1.1 | 1.28 | 0.982 | 0.926 | 0.918 | 0.925 | 0.822 | 0.848 | 0.806 | 0.731
NCI-H460 | 1.43 | 0.487 | 1.45 | 1.17 | 1.03 | 0.114 | 0.24 | 0.125 | 0.121 | 0.126 | 0.982 | 0.901 | 0.955 | 0.928 | 0.965 | 0.74 | 0.7 | 0.708 | 0.683 | 0.631
NCI-H520 | 1.16 | 1.04 | 1.32 | 1.11 | 1.18 | 0.853 | 0.676 | 0.843 | 0.633 | 0.685 | 0.878 | 0.949 | 0.647 | 0.892 | 0.661 | 0.719 | 0.725 | 0.808 | 0.674 | 0.574
NCI-H596 | 1.01 | 1.09 | 0.959 | 0.869 | 1.01 | 0.851 | 0.745 | 0.747 | 0.817 | 0.675 | 0.811 | 0.81 | 0.912 | 0.889 | 0.7 | 0.674 | 0.714 | 0.609 | 0.668 | 0.588
NCI-H647 | 1.31 | 1.12 | 1.22 | 1.07 | 1.03 | 0.619 | 0.431 | 0.524 | 0.502 | 0.433 | 1.06 | 1.18 | 1.23 | 1.15 | 0.912 | 0.691 | 0.384 | 0.571 | 0.492 | 0.328
NCI-H727 | 0.519 | 0.482 | 0.443 | 0.395 | 0.474 | 0.375 | 0.375 | 0.383 | 0.372 | 0.403 | 1.23 | 0.778 | 0.894 | 0.911 | 1.18 | 1.3 |  | 1.13 | 1.18 | 1.04
NCI-H838 | 1.35 | 1.21 | 1.22 | 1.15 | 1.23 | 0.657 | 0.678 | 0.534 | 0.518 | 0.552 | 1.16 | 1.08 | 1.04 | 1.02 | 0.982 | 0.8 | 0.685 | 0.685 | 0.708 | 0.61
NCI-H1355 | 1.02 | 1.07 | 1.07 | 0.949 | 0.87 | 0.445 | 0.452 | 0.414 | 0.433 | 0.315 | 1.03 | 0.943 | 0.901 | 0.977 | 0.978 | 0.721 | 0.599 | 0.633 | 0.634 | 0.671
NCI-H1395 | 1.08 | 1.26 | 1.12 | 1.06 | 1.29 | 1.15 | 1.15 | 1.18 | 0.972 | 1.02 | 0.998 | 0.971 | 0.947 | 0.722 | 0.989 | 0.891 | 0.765 | 0.662 | 0.651 | 0.56
NCI-H1437 | 1.14 | 1.06 | 1.16 | 1.08 | 1.09 | 0.563 | 0.601 | 0.52 | 0.545 | 0.494 | 1.32 | 1.23 | 1.33 | 1.28 | 1.2 | 0.752 | 0.813 | 0.771 | 0.667 | 0.653
NCI-H1650 | 1.17 | 1.06 | 1.13 | 1.19 | 1.16 | 0.691 | 0.5 | 0.592 | 0.517 | 0.54 | 1.22 | 1.15 | 1.22 | 1.13 | 0.943 | 0.709 | 0.466 | 0.509 | 0.469 | 0.478
NCI-H1651 | 1.1 | 1.01 | 1.21 |  | 0.979 | 0.848 | 0.833 | 0.898 | 0.829 | 0.929 | 0.682 | 0.744 | 0.825 | 0.727 | 0.759 | 0.639 | 0.558 | 0.564 | 0.539 | 0.483
